Data taken from patent US8853228B2, “Heterocyclic analogs of propargyl-linked inhibitors of dihydrofolate reductase” (University of Connecticut, priority 2011, dated 2014).
Converted amounts (≈) assume the structure as drawn. Read-outs that look alike come from different tables or passages of the source.

Columns and labels:
[1] = system: MCF-10 cells; assay: Mammalian cell toxicity, MCF-10; format: cell-based, human; details: cytotoxicity
Experimental: (§1) Adherent cell lines were maintained in Eagle's Minimal Essential Media (Sigma-Aldrich, St. Louis, Mo., USA) with 2 mM glutamine and Earle's Balanced Salt Solution (HyClone, Logan, Utah, USA) adjusted to contain 1.5 g/L sodium bicarbonate, 0.1 mM non-essential amino acids, 1 mM sodium pyruvate and 10% fetal calf serum. Fetal calf serum used in these assays was lot matched throughout. […] Toxicity assays were conducted between passages 10-20. Target compound toxicity was measured by incubating the test compound with the cells for 4 h, washing the cells and finally treating the cells with Alamar Blue. After 12-24 h, the fluorescence of the reduced dye was measured. Fluorescence intensity as a function of test compound concentration was fit to the Fermi equation, using non-linear least squares regression analysis, to estimate IC50 values.

[2] = system: HepG2 cells; assay: Mammalian cell toxicity, HepG2; format: cell-based; details: cytotoxicity
Experimental: as §1

[3] = biological target: hDHFR (Homo sapiens (Human), UniProt P00374); assay: hDHFR enzyme inhibition assay; format: biochemical
Experimental: hDHFR: The gene for hDHFR was amplified using PCR from cDNA obtained from ATCC. The gene was inserted in a pET41 vector with a C-terminal histidine tag for affinity chromatography. The resulting construct was verified by sequencing. The hDHFR protein was expressed in E. coli and purified using a nickel affinity column.
(§2) Enzyme and inhibitor were allowed to incubate for 5 min before adding dihydrofolate to initiate the reaction. Enzyme assays were performed at least four times. IC50 values and their standard deviations were calculated in the presence of varying concentrations of inhibitor near the IC50 concentration.
(§3) Enzyme inhibition assays were performed by monitoring the rate of NADPH oxidation by the DHFR enzyme at an absorbance of 340 nm. Assays were performed in the presence of saturating concentrations of NADPH and initiated with dihydrofolate. All assays were completed at 25° C. in a buffer containing 20 mM TES pH 7.0, 50 mM KCl, 10 mM 2-mercaptoethanol, 0.5 mM EDTA and 1 mg/mL BSA. Inhibition was measured at least three times with inhibitor concentrations near the IC50 value and the average IC50 value is reported with a standard deviation.

[4] = system: Streptococcus pyogenes; assay: Antibacterial MIC, broth microdilution with Alamar Blue; format: cell-based; details: for Selectivity S. pyogenes: IC50 (MCF10)/MIC (pathogen); for MIC S. pyogenes: Table 6
Experimental: (§4) For susceptibility testing, 10 μL of glycerol stock was suspended in a 10 mL shake flask culture of chemically defined Isosensitest broth (Oxoid) supplemented with 2% w/v glucose. A sample of the shake flask culture was diluted to 1×10^6 cells/mL in media and added to 96-well test plates (100 μL per well) containing test compounds dispensed in DMSO (2 μL). After an incubation period (30° C.) determined from the strain specific doubling time, a 0.03% w/v aqueous solution of resazurin (10 μL) was added and the plates were allowed to incubate; each well was then scored for dye reduction.

[5] = biological target: S. aureus DHFR (Staphylococcus aureus, UniProt P0A017); format: biochemical; details: for Selectivity (h/Sa): IC50 (human)/IC50 (pathogen); for IC50: average of at least three measurements
Experimental: as §3

[6] = system: S. aureus 13709 (MRSA); assay: Antibacterial MIC, broth microdilution with Alamar Blue; format: cell-based, Staphylococcus aureus; details: for Selectivity MRSA: IC50 (MCF10)/MIC (pathogen); for MIC MRSA: Table 6
Experimental: as §4

[7] = biological target: S. pyogenes DHFR (Streptococcus pyogenes, UniProt Q9A091); assay: S. pyogenes DHFR enzyme inhibition assay; format: biochemical; details: for Selectivity (h/Sp): IC50 (human)/IC50 (pathogen); for IC50: average of at least three measurements
Experimental: as §3

[8] = system: C. glabrata; assay: Antifungal assay (MIC, Alamar Blue); format: cell-based, Candida glabrata
Experimental: Antifungal assays were performed using C. glabrata as a suspension in 50% glycerol at −78° C. For susceptibility testing, a streak of stock culture was made on SDA agar and grown at 30° C. for 48 h. One pure colony of the test organism was recovered from the plate, suspended in appropriate media and grown in a 5 mL shake flask culture. A sample of the shake flask culture was diluted to 1×10^5 cells/mL in media and added to 96-well test plates (100 μL per well) containing test compounds dispensed in DMSO (1 μL). Amphotericin and ketoconazole were used as controls. After an incubation period determined from the strain specific doubling time, Alamar Blue (10 μL) was added, allowed to incubate; each well was scored for dye reduction.
Several representative compounds were also evaluated in thymidine-depleted media. It has been shown that high levels of thymidine interfere with accurate susceptibility testing of antifolates. To compensate for this, antifolates are frequently evaluated in a controlled minimal media with a low thymidine concentration. […] In addition, the compounds were also evaluated for mammalian cell toxicity using MCF-10 and HepG2 cell lines. Cellular selectivity is reported as the IC50 value for the MCF-10 human cell line divided by the MIC value (μg/mL) (Table 8).

[9] = biological target: CgDHFR (Candida glabrata (strain ATCC 2001 / BCRC 20586 / JCM 3761 / NBRC 0622 / NRRL Y-65 / CBS 138) (Yeast) (Nakaseomyces glabratus), UniProt Q6FPH0); assay: biochemical
From the text: CgDHFR: The gene coding CgDHFR was amplified by PCR from C. glabrata genomic DNA obtained from ATCC. The gene was inserted in a pET41 vector that includes a C-terminal histidine tag for nickel affinity chromatography. E. coli cells were transformed and the resulting plasmid was verified by sequencing. The protein was expressed in E. coli BL21(DE3) cells with isopropyl β-D-thiogalactoside induction. Following growth, the cells were lysed with BugBuster (Novagen) and centrifuged; the supernatant was loaded on a Ni-NTA column. The column was washed with 20 mM Tris (pH 8.0)/0.4 M NaCl and the protein was eluted using a gradient of 20 mM Tris (pH 8.0), 0.3 M NaCl, 20% glycerol, 0.1 mM EDTA, 2 mM DTT, 250 mM imidazole. Fractions containing CgDHFR were identified by SDS-PAGE, combined and desalted using a PD-10 column with a buffer containing 20 mM Tris pH 8.0, 20% glycerol, 0.1 mM EDTA and 2 mM DTT. The protein was concentrated to 13 mg/mL.
as §2

[10] = Table 5, average of at least three measurements, read-out: IC50 human

hDHFR, sequence (P00374 whole entry): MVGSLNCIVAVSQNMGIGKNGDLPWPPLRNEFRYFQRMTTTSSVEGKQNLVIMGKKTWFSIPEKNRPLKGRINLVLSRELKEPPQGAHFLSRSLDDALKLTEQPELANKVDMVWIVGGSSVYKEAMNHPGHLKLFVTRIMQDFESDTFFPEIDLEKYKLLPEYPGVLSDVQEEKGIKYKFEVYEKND
S. pyogenes DHFR, sequence (Q9A091 1-165): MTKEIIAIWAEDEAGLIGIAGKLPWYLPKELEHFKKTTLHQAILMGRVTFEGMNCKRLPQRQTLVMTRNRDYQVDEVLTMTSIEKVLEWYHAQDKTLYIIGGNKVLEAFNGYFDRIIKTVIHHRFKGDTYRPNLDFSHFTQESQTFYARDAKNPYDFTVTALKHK
CgDHFR, sequence (Q6FPH0 1-217): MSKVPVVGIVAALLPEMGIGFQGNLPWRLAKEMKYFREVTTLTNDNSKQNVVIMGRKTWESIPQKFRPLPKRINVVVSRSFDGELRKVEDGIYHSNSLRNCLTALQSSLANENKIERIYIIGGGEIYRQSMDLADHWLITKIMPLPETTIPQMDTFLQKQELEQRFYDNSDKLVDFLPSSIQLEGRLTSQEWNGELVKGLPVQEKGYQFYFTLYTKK

SMILES	IC50 ([1]; Table 6) [nM]	IC50 ([2]; Table 6) [nM]	IC50 [3, 10] [nM]	Selectivity S. pyogenes [4]	MIC S. pyogenes [4] [µg/mL]	Selectivity (h/Sa) [5]	IC50 [5] [nM]	Selectivity MRSA [6]	MIC MRSA [6] [µg/mL]	Selectivity (h/Sp) [7]	IC50 [7] [nM]	IC50 ([1]; Table 8) [nM]	MIC (Cg) ([8]; C. glabrata, YM media) [µg/mL]	Selectivity Index ([8]; IC50 (MCF-10)/MIC (C. glabrata))	MIC C. glabrata ([8]; IsoSensitest media supplemented with 2% glucose (thymidine-depleted)) [µg/mL]	IC50 ([2]; Table 8) [nM]	IC50 ([3]; Table 7, read-out: IC50 (hDHFR)) [nM]	Selectivity ([9]; Table 7, hDHFR vs CgDHFR)	IC50 ([9]; Table 7, read-out: IC50 (CgDHFR)) [nM]	improvement in potency against S. aureus DHFR ([5]; relative to compound 140) [fold]
CCc1nc(N)nc(N)c1C#CCc1cccc(-c2ccncc2)c1 [Compound 151]	475000	> 500000	520 ± 23	11,875	0.04 (≈ 0.121 µM)	26	20 ± 0.5	11,585	0.041 (≈ 0.124 µM)	17	30 ± 1.7									
CCc1nc(N)nc(N)c1C#CCc1cc(OC)cc(-c2ccccc2)c1 [Compound 144]	199000		140 ± 1	603	0.33 (≈ 0.921 µM)	2.4	59 ± 2.3	2500	0.08 (≈ 0.223 µM)	3	52 ± 1.7									
COc1cc(C(C)C#Cc2c(C)nc(N)nc2N)cc(N2C[C@@H](C)O[C@@H](C)C2)c1 (mixture of isomers) [Compound 156]												314000	6.3 (≈ 15.9 µM)	108	2.9 (≈ 7.33 µM)	193000	330 ± 6	4.9 ± 0.4	68 ± 5	
CCc1nc(N)nc(N)c1C#CC(C)c1cc(-c2ccccc2)ccc1OC (stereo not drawn) [Compound 146]	54000	77000	100 ± 10	675	0.08 (≈ 0.215 µM)	1.5	67 ± 5.5	72	0.744 (≈ 2 µM)	4	26 ± 2.5									
COc1ccc(-c2ccccc2)cc1C(C)C#Cc1c(C)nc(N)nc1N (stereo not drawn) [Compound 145]	38000	94000	97 ± 10	950	0.04 (≈ 0.112 µM)	1.3	75 ± 4	53	0.716 (≈ 2 µM)	4	23 ± 1.5									
CCc1nc(N)nc(N)c1C#CCc1cccc(-c2cncnc2)c1 [Compound 155]	> 500000		160 ± 13	26,316	0.019 (≈ 0.0575 µM)	5	35 ± 1.1	3,333	0.15 (≈ 0.454 µM)	7	23 ± 1.2									
CCc1nc(N)nc(N)c1C#CCc1cc(-c2ccccc2)ccc1OC [Compound 142]	67000		300 ± 10	11,167	0.006 (≈ 0.0167 µM)	125	2.4 ± 0.2	372	0.18 (≈ 0.502 µM)	51	5.9 ± 0.2									18
